According to PubChem BioAssay (NCI):
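Grown in 96-well plates, cells were treated for 48 hours with each compound at five concentrations. Insufficient inhibition: endpoint recorded as highest concentration tested. Here, GI50 denotes the concentration required for 50% inhibition of growth. TGI: total growth inhibition.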

What was measured:
Experiment in all cases: inhibition of tumour cell growth, NCI panel, 48 h
TK-10 renal = system: TK-10 renal
786-0 renal = system: 786-0 renal
MOLT-4 leukemia = system: MOLT-4 leukemia
SK-OV-3 ovarian = system: SK-OV-3 ovarian
SN12C renal = system: SN12C renal
ACHN renal = system: ACHN renal
NCI-H522 lung = system: NCI-H522 lung
KM12 colon = system: KM12 colon
A498 renal = system: A498 renal
SNB-75 CNS = system: SNB-75 CNS
NCI/ADR-RES ovarian = system: NCI/ADR-RES ovarian
UO-31 renal = system: UO-31 renal
SK-MEL-2 melanoma = system: SK-MEL-2 melanoma
LOX IMVI melanoma = system: LOX IMVI melanoma
MCF7 breast = system: MCF7 breast
NCI-H226 lung = system: NCI-H226 lung
HOP-62 NSCLC = system: HOP-62 NSCLC
SR leukemia = system: SR leukemia
A549 NSCLC = system: A549 NSCLC
RXF 393 renal = system: RXF 393 renal
COLO 205 colon = system: COLO 205 colon
IGROV1 ovarian = system: IGROV1 ovarian
SF-539 CNS = system: SF-539 CNS
HCT-116 colon = system: HCT-116 colon
HL-60(TB) leukemia = system: HL-60(TB) leukemia
U251 CNS = system: U251 CNS
CAKI-1 renal = system: CAKI-1 renal
K-562 leukemia = system: K-562 leukemia
SF-268 CNS = system: SF-268 CNS
BT-549 breast = system: BT-549 breast
SF-295 CNS = system: SF-295 CNS
MDA-MB-435 = system: MDA-MB-435
OVCAR-8 ovarian = system: OVCAR-8 ovarian
NCI-H460 lung = system: NCI-H460 lung
SK-MEL-5 melanoma = system: SK-MEL-5 melanoma
OVCAR-3 ovarian = system: OVCAR-3 ovarian
RPMI-8226 leukemia = system: RPMI-8226 leukemia
SK-MEL-28 melanoma = system: SK-MEL-28 melanoma
CCRF-CEM leukemia = system: CCRF-CEM leukemia
M14 melanoma = system: M14 melanoma
HCC-2998 colon = system: HCC-2998 colon
HOP-92 NSCLC = system: HOP-92 NSCLC
PC-3 prostate = system: PC-3 prostate
MALME-3M melanoma = system: MALME-3M melanoma
UACC-257 melanoma = system: UACC-257 melanoma
SW-620 colon = system: SW-620 colon
OVCAR-5 ovarian = system: OVCAR-5 ovarian
HS 578T breast = system: HS 578T breast
DU-145 prostate = system: DU-145 prostate
HCT-15 colon = system: HCT-15 colon
UACC-62 melanoma = system: UACC-62 melanoma
NCI-H23 lung = system: NCI-H23 lung
OVCAR-4 ovarian = system: OVCAR-4 ovarian
SNB-19 CNS = system: SNB-19 CNS
MDA-MB-231 breast = system: MDA-MB-231 breast

Cc1ccc(N)cc1[As]=[As]c1cc(N)ccc1C (stereo not given)
GI50 (TK-10 renal): 1470 nM
TGI (TK-10 renal): 2810 nM
GI50 (786-0 renal): 1640 nM
TGI (786-0 renal): 3.03 µM
GI50 (MOLT-4 leukemia): 1940 nM
TGI (MOLT-4 leukemia): 8.82 µM
GI50 (SK-OV-3 ovarian): 3.59 µM
TGI (SK-OV-3 ovarian): 9.43 µM
GI50 (SN12C renal): 1400 nM
TGI (SN12C renal): 2880 nM
GI50 (ACHN renal): 1670 nM
TGI (ACHN renal): 3.26 µM
GI50 (NCI-H522 lung): 122 nM
TGI (NCI-H522 lung): 268 nM
GI50 (KM12 colon): 1950 nM
TGI (KM12 colon): 3.81 µM
GI50 (A498 renal): 1290 nM
TGI (A498 renal): 2640 nM
GI50 (SNB-75 CNS): 1270 nM
TGI (SNB-75 CNS): 2590 nM
GI50 (NCI/ADR-RES ovarian): 3.19 µM
TGI (NCI/ADR-RES ovarian): > 100 µM
GI50 (UO-31 renal): 1570 nM
TGI (UO-31 renal): 3.03 µM
GI50 (SK-MEL-2 melanoma): 1970 nM
TGI (SK-MEL-2 melanoma): 3.54 µM
GI50 (LOX IMVI melanoma): 1470 nM
TGI (LOX IMVI melanoma): 2880 nM
GI50 (MCF7 breast): 537 nM
TGI (MCF7 breast): 2750 nM
GI50 (NCI-H226 lung): 1570 nM
TGI (NCI-H226 lung): 3.07 µM
GI50 (HOP-62 NSCLC): 1720 nM
TGI (HOP-62 NSCLC): 3.19 µM
GI50 (SR leukemia): 944 nM
TGI (SR leukemia): > 25.1 µM
GI50 (A549 NSCLC): 4.36 µM
TGI (A549 NSCLC): 20 µM
GI50 (RXF 393 renal): 1190 nM
TGI (RXF 393 renal): 2470 nM
GI50 (COLO 205 colon): 1330 nM
TGI (COLO 205 colon): 2770 nM
GI50 (IGROV1 ovarian): 1880 nM
TGI (IGROV1 ovarian): 4.18 µM
GI50 (SF-539 CNS): 1390 nM
TGI (SF-539 CNS): 2760 nM
GI50 (HCT-116 colon): 1640 nM
TGI (HCT-116 colon): 3.15 µM
GI50 (HL-60(TB) leukemia): 2010 nM
TGI (HL-60(TB) leukemia): 5.8 µM
GI50 (U251 CNS): 1350 nM
TGI (U251 CNS): 2690 nM
GI50 (CAKI-1 renal): 1500 nM
TGI (CAKI-1 renal): 2860 nM
GI50 (K-562 leukemia): 341 nM
TGI (K-562 leukemia): > 100 µM
GI50 (SF-268 CNS): 1560 nM
TGI (SF-268 CNS): 3.02 µM
GI50 (BT-549 breast): 1460 nM
TGI (BT-549 breast): 2800 nM
GI50 (SF-295 CNS): 4.6 µM
TGI (SF-295 CNS): 12.3 µM
GI50 (MDA-MB-435): 1620 nM
TGI (MDA-MB-435): 3.25 µM
GI50 (OVCAR-8 ovarian): 1570 nM
TGI (OVCAR-8 ovarian): 2980 nM
GI50 (NCI-H460 lung): 3.08 µM
TGI (NCI-H460 lung): 12.2 µM
GI50 (SK-MEL-5 melanoma): 1510 nM
TGI (SK-MEL-5 melanoma): 2910 nM
GI50 (OVCAR-3 ovarian): 1620 nM
TGI (OVCAR-3 ovarian): 3.02 µM
GI50 (RPMI-8226 leukemia): 1070 nM
TGI (RPMI-8226 leukemia): 4.45 µM
GI50 (SK-MEL-28 melanoma): 1390 nM
TGI (SK-MEL-28 melanoma): 2830 nM
GI50 (CCRF-CEM leukemia): 298 nM
TGI (CCRF-CEM leukemia): 2360 nM
GI50 (M14 melanoma): 1710 nM
TGI (M14 melanoma): 3.4 µM
GI50 (HCC-2998 colon): 1930 nM
TGI (HCC-2998 colon): 3.58 µM
GI50 (HOP-92 NSCLC): 997 nM
TGI (HOP-92 NSCLC): 2400 nM
GI50 (PC-3 prostate): 1710 nM
TGI (PC-3 prostate): 3.38 µM
GI50 (MALME-3M melanoma): 679 nM
TGI (MALME-3M melanoma): 2030 nM
GI50 (UACC-257 melanoma): 1250 nM
TGI (UACC-257 melanoma): 2540 nM
GI50 (SW-620 colon): 1270 nM
TGI (SW-620 colon): 3.2 µM
GI50 (OVCAR-5 ovarian): 2070 nM
TGI (OVCAR-5 ovarian): 3.73 µM
GI50 (HS 578T breast): 2810 nM
TGI (HS 578T breast): > 100 µM
GI50 (DU-145 prostate): 1810 nM
TGI (DU-145 prostate): 3.23 µM
GI50 (HCT-15 colon): 750 nM
TGI (HCT-15 colon): 2240 nM
GI50 (UACC-62 melanoma): 1510 nM
TGI (UACC-62 melanoma): 3 µM
GI50 (NCI-H23 lung): 1700 nM
TGI (NCI-H23 lung): 3.58 µM
GI50 (OVCAR-4 ovarian): 1420 nM
TGI (OVCAR-4 ovarian): 2790 nM
GI50 (SNB-19 CNS): 1680 nM
TGI (SNB-19 CNS): 3.24 µM
GI50 (MDA-MB-231 breast): 1350 nM
TGI (MDA-MB-231 breast): 2820 nM
